According to patent publication US20220256852A1, “NOVEL CRYSTALLINE FORM OF PYROXASULFONE, METHODS FOR ITS PREPARATION AND USE OF THE SAME” (ROTAM AGROCHEM INTERNATIONAL COMPANY LIMITED, priority 2021, published 2022):

Legend:
[1] = assay type: physicochemical
Method: Samples (S1, S2 and S3) were stored at 54° C. for 1 month, 3 months and 6 months. The procedures were followed according to CIPAC MT 46.3. The concentration of Pyroxasulfone was measured at the end of each storage time by HPLC. The aggregation was measured by observation. The original concentration of Pyroxasulfone in each formulation was 40%.

[2] = Dispersibility test of water dispersible granules (WG); assay type: physicochemical; conditions: summary of Table 4
Method: 0.3077 g of calcium carbonate and 0.092 g of magnesium oxide were dissolved in a small amount of diluted hydrochloric acid, then heated and boiled on a sand bath to remove hydrochloric acid. Distilled water was added to the remaining solution to make 10 liters in total. Subsequently, 100 ml of the obtained solution was put into a 100 ml stoppered measuring cylinder, and kept at 20° C. in a temperature-controlled room. 100 mg samples of S4 to S6 were put into the measuring cylinder, and left to stand for 30 seconds. The measuring cylinder was then turned upside down repeatedly at a rate of once a second, whereupon the turning-down frequency (number of turns) needed for disintegrating the whole water-dispersible material was counted.

## Cn1nc(C(F)(F)F)c(CS(=O)(=O)C2=NOC(C)(C)C2)c1OC(F)F [3-[[[5-(difluoromethoxy)-1-methyl-3-(trifluoromethyl)-1H-pyrazol-4-yl]methyl]sulfonyl]-4,5-dihydro-5,5-dimethylisoxazole]
[1]
  storage stability compared with amorphous Pyroxasulfone: significantly higher storage stability
[1]; summary of Table 5
  tendency to aggregate during storage: significantly lower tendency to aggregate
[2]
  dispersibility compared with amorphous Pyroxasulfone: significantly higher dispersibility
